Laboratory results reported in patent US20120058499A1, “Bioluminescent Detection of Protease Activity” (priority 2010, published 2012).

What was measured:
Assay type in all cases: biochemical
UCHL5 = target: T1, UCHL5 (Homo sapiens, UniProt Q9Y5K5); assay: Platform comparison of DUB substrates, signal to background; conditions: DUB 10 nM; signal at 30 minutes; Ub-LUC 100 nM, DUB-Glo substrate 20 μM, Ub-AMC/Ub-rho 250 nM
T1 sequence (Q9Y5K5 1-329): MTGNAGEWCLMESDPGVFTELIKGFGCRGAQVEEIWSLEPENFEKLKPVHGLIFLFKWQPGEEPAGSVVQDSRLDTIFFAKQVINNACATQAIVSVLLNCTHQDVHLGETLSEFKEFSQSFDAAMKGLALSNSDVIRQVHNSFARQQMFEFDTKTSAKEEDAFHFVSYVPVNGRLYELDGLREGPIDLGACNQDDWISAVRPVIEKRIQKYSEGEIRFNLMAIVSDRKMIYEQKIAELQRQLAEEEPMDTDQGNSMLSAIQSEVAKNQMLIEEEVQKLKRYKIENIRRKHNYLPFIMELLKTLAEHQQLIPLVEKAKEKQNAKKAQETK
Protocol: (§1) For Ub-AMC and Ub-Rhodamine110, all enzymes were diluted into 50 mM Tris, pH 8.0, 5 mM DTT, 0.05% CHAPS to a final concentration of 10 nM. […] Either Ub-AMC or Ub-Rhodamine110 (final reaction concentration equal to 250 nM) were diluted into 50 mM Tris, pH 8.0, 5 mM DTT, 0.05% (w/v) CHAPS. […] For Ub-Rhodamine110, fluorescence was monitored with filters corresponding to excitation at 485 nm and emission at 531 nm.

USP14 = USP14 (Homo sapiens, UniProt P54578); assay: as above; conditions: DUB 10 nM; signal at 30 minutes; Ub-LUC 100 nM, DUB-Glo substrate 20 μM, Ub-AMC/Ub-rho 250 nM
Sequence of USP14 (P54578 whole entry, species assumed): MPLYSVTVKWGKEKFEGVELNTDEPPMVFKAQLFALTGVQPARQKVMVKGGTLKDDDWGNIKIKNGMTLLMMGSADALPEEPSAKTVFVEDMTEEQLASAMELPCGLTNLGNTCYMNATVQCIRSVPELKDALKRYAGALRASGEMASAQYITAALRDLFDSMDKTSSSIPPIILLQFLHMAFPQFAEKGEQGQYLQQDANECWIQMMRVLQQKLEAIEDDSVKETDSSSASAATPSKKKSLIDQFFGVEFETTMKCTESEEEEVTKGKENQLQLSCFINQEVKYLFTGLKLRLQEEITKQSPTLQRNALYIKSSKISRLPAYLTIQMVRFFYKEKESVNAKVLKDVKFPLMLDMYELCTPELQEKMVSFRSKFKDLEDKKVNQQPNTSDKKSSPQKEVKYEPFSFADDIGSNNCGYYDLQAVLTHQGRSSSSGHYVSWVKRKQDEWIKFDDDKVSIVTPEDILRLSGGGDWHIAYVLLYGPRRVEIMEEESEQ
Protocol: as §1

Ataxin3 = Ataxin3 (Homo sapiens, UniProt P54252); assay: as above; conditions: DUB 10 nM; signal at 30 minutes; Ub-LUC 100 nM, DUB-Glo substrate 20 μM, Ub-AMC/Ub-rho 250 nM
Sequence of Ataxin3 (P54252 whole entry, species assumed): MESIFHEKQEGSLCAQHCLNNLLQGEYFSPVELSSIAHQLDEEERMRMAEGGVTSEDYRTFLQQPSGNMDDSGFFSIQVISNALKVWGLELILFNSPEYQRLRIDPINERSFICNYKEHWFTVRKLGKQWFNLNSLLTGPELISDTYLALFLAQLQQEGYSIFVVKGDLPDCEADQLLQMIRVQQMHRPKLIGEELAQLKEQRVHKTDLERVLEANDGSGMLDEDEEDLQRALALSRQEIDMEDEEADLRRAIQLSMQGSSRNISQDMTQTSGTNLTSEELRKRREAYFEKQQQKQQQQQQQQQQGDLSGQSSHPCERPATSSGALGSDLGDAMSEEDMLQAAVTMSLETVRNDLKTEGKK
Protocol: as §1

Otub2 = target: T2, Otub2 (Homo sapiens, UniProt Q96DC9); assay: as above; conditions: DUB 10 nM; signal at 30 minutes; Ub-LUC 100 nM, DUB-Glo substrate 20 μM, Ub-AMC/Ub-rho 250 nM
T2 sequence (Q96DC9 1-234): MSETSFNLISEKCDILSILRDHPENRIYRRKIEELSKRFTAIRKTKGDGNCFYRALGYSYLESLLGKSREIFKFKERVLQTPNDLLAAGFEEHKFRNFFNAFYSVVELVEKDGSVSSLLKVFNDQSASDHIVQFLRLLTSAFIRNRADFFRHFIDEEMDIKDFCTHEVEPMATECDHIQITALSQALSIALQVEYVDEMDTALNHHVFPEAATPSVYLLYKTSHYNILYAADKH
Protocol: as §1

UCHL3 = target: T3, UCHL3 (Homo sapiens, UniProt P15374); assay: Isopeptidase cleavage of substrates (DUB-Glo luminescence / fluorescence), S/B; conditions: for signal to background (S/B) ratio: 30 minutes
T3 sequence (P15374 1-230): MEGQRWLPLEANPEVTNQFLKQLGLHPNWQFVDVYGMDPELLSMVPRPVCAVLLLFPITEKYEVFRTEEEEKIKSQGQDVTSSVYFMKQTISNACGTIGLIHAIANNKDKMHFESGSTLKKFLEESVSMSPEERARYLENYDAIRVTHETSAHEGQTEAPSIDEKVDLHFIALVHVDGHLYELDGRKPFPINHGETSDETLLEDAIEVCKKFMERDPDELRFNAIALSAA
Protocol: The Ub-amino-luciferin substrate was compared to the Z-Arg-Leu-Arg-Gly-Gly (SEQ ID NO: 1)-amino-luciferin substrate (Promega DUB-Glo™ substrate) to determine the limit of detection of the activities of four different isopeptidases (UCHL3, USP2core, USP7, and USP8). For all enzymes, these two substrates were tested in parallel using the DUB-Glo™ assay system (Promega) according to the manufacturer's instructions. All enzymes were diluted into 50 mM HEPES, pH 7.5, 10 mM DTT, 0.1% Prionex (Sigma-Aldrich). For testing Z-Arg-Leu-Arg-Gly-Gly (SEQ ID NO: 1)-amino-luciferin, final isopeptidase concentrations were as follows: UCHL3 equal to approximately 0.35 to 50 nM; USP2core equal to approximately 10 to 500 nM, USP7 equal to approximately 0.1 to 50 nM, and USP8 equal to approximately 20 to 500 nM. For testing Ub-amino-luciferin, final isopeptidase concentrations were as follows: UCHL3 equal to approximately 0.05 to 50 pM; USP2core, USP7, and USP8 equal to approximately 0.5 to 500 pM. Reactions were assembled through addition of 50 μl of diluted enzyme and 50 μl of DUB-Glo™ reaction mixture supplemented with either Z-Arg-Leu-Arg-Gly-Gly (SEQ ID NO: 1)-amino-luciferin (final concentration of 20 μM) or Ub-amino-luciferin (final concentration of 100 nM). The signal in relative luminescence units (RLUs) was measured at 30 minutes from reaction assembly on an Envision multi-label plate reader (Perkin Elmer). The signal to background ratio (S/B) was calculated as (maximum signal−signal in absence of enzyme)/(signal in absence of enzyme).
The Ub-amino-luciferin (Ub-LUC) substrate was compared to the Ub-AMC substrate (FIG. 3) and the Ub-Rhodamine110 (Ub-Rho) substrate (FIG. 4), to determine the limit of detection for the activities of four different isopeptidases (UCHL3, USP2core, USP7, and USP8). All enzymes were diluted into 50 mM Tris, pH 8.0, 5 mM DTT, 0.05% (w/v) CHAPS. Final isopeptidase concentrations were as follows: UCHL3 equal to approximately 2 pM to 40 pM; USP2core, USP7, and USP8 were equal to approximately 10 to 1000 nM. Either Ub-AMC or Ub-Rhodamine110 (final concentration equal to 250 nM) were diluted into 50 mM Tris, pH 8.0, 5 mM DTT, 0.05% (w/v) CHAPS. Reactions were assembled through the addition of 50 μl diluted isopeptidase to 50 μl of either Ub-AMC or Ub-Rhodamine110, and the signal in relative fluorescence units (RFUs) was measured at 30 minutes on an Envision multi-label plate reader (Perkin Elmer). For Ub-AMC, fluorescence was monitored with filters corresponding to excitation at 340 nm and emission at 460 nm. For Ub-Rhodamine110, fluorescence was monitored with filters corresponding to excitation at 485 nm and emission at 531 nm. The signal to background (S/B) was calculated as (maximum signal−signal in absence of enzyme)/(signal in absence of enzyme).

Row | Substance | Signal to Background value (UCHL5) | Signal to Background value (USP14) | Signal to Background value (Ataxin3) | Signal to Background value (Otub2) | fold greater S/B compared to Z-RLRGG-amino-luciferin (UCHL3; UCHL3 activity) | limits of detection, fold lower than with Z-RLRGG-amino-luciferin (UCHL3; linear range of UCHL3-dependent S/B) | signal to background (S/B) ratio (UCHL3; substrate 100 nM, UCHL3 32 pM) | signal to background (S/B) ratio (UCHL3; substrate 20 μM, UCHL3 40 nM)
1 | Ub(1-76)-aminoluciferin [Ub-LUC] | 1700 | 6.0 | 4.0 | 980 | about 1000 fold | approximately 1000 fold | 1000 | 
2 | Z-Arg-Leu-Arg-Gly-Gly (SEQ ID NO: 1)-amino-luciferin [DUB-glo ™] | 1.4 | 1.6 | 1.3 | 1.3 |  |  |  | approximately 1000
